Experiments:
[1] = system: C. parvum; assay: C. parvum-infected HCT-8 cell assay; type: cell-based, Cryptosporidium parvum; details: for change of potency, in words: Cp HCT-8 assay, Table 1 linker SAR; for fold loss of potency: Cp HCT-8 EC50, Table 1 linker SAR, comparator not given
[2] = system: C. parvum; details: previous work, cited from earlier work
[3] = system: C. parvum; assay: C. parvum time-kill curve; type: cell-based, Cryptosporidium parvum; details: for effect on parasite numbers in time-kill assay: compound added at multiples of EC90 24 hours after infection
[4] = molecular target: T1, hERG (Homo sapiens, UniProt Q12809); assay: hERG-CHO automated patch clamp electrophysiology; type: cell-based
[5] = system: human Ether-a-go-go-Related Gene (hERG); details: read-out: hERG IC50; reported value; cited from earlier work
[6] = system: CYP1A2, CYP2B6, CYP2C8, CYP2D6, CYP3A4; assay: CYP inhibition panel at 10 μM, remaining isoforms; type: in vitro ADME; details: human
[7] = system: HCT-8 cells; assay: Host cell toxicity, CellTiter AQueous colorimetric assay; type: cell-based, human
[8] = Mouse PK study, plasma and jejunum; type: in vivo, CD-1 mice; details: male, CD-1, mouse, iv, 1 mg/kg
[9] = system: C. parvum; assay: NSG mouse model of C. parvum infection; details: 50 mg/kg twice daily by oral gavage, days 7-10; fecal qPCR; n=4
[10] = molecular target: T1, hERG; assay: hERG [3H]-dofetilide competitive binding assay; details: human, probe [3H]-dofetilide
[11] = molecular target: human p-glycoprotein (Pgp) multi-drug resistance (MDR) transporter (Homo sapiens, UniProt P08183); assay: MDR1 transporter assay; type: in vitro ADME; details: 10 μM, 2 hours
[12] = molecular target: human potassium channel hERG (Homo sapiens, UniProt Q12809); assay: hERG [3H]-dofetilide competitive binding assay; details: 10 μM; inhibition of [3H]-dofetilide binding
Sequence of human potassium channel hERG (Q12809 whole entry): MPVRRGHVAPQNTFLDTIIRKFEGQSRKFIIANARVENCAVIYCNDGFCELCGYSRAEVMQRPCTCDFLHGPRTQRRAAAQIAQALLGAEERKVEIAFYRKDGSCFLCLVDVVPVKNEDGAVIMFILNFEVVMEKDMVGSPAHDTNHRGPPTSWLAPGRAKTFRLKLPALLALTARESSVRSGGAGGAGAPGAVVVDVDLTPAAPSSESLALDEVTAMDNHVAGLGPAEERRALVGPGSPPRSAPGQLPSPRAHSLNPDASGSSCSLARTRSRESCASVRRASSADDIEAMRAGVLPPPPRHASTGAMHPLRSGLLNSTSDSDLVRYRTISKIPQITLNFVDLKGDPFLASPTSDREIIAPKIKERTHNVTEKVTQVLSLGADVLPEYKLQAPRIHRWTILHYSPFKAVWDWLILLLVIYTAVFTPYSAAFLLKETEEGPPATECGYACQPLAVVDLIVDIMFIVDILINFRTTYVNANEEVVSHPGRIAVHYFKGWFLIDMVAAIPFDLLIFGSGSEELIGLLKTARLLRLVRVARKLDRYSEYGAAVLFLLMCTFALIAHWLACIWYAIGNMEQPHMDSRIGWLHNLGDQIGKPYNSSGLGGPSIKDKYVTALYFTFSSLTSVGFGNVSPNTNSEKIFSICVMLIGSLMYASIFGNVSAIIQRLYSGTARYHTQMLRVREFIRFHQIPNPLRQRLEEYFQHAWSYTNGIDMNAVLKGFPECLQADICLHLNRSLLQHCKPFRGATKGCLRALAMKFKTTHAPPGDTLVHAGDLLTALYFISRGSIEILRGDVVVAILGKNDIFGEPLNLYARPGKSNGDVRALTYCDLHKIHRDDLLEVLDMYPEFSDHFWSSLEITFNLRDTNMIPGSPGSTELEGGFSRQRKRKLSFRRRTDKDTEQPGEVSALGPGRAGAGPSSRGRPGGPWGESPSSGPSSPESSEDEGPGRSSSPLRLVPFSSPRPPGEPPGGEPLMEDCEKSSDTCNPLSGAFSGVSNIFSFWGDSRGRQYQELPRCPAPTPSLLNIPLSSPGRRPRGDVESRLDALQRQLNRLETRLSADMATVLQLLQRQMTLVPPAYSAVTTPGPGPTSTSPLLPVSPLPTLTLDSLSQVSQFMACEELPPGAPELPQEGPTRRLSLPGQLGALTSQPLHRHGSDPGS

T1 sequence (Q12809 whole entry): as above

Compound: O=C(Cc1cccc(Cl)c1)N1CCN(c2ccc3nncn3n2)CC1 [Compound 29j, 2-(3-chlorophenyl)-1-(4-{[1,2,4]triazolo[4,3-b]pyridazin-6-yl}piperazin-1-yl)ethan-1-one]
- fold less potent than chlorine in the 4-position ([1]; Cp HCT-8 EC50, Table 2): 4 fold

Compound: O=C(c1ccc(Cl)c(Cl)c1)N1CCN(c2ccc3nncn3n2)CC1 [Compound 12b, 1-(3,4-dichlorobenzoyl)-4-{[1,2,4]triazolo[4,3-b]pyridazin-6-yl}piperazine]
- fold loss of potency relative to 12a ([1]; Cp HCT-8 EC50): > 100 fold

Compound: CC(=O)Oc1ccccc1C(=O)Nc1ncc([N+](=O)[O-])s1 [NTZ, nitazoxanide, reference compound]
- EC50 ([2]; read-out: EC50, parasite growth in vitro): 3.8 µM
- host cell cytotoxicity in time-kill assay ([3]; HCT-8 cultures): cytotoxic at concentrations above the EC90
- effect on parasite numbers in time-kill assay [3]: blocked C. parvum growth without eliminating the parasite from HCT-8 cultures

Compound: O=C(Cc1ccc(F)cc1)N1CCN(c2ccc3nncn3n2)CC1 [Compound 29h, 2-(4-fluorophenyl)-1-(4-{[1,2,4]triazolo[4,3-b]pyridazin-6-yl}piperazin-1-yl)ethan-1-one]
- fold more potent than H (entry 1, 29a) ([1]; Cp HCT-8 EC50, Table 2): 18 fold

Compound: O=C(Nc1ccc(Cl)cc1)N1CCN(c2ccc3nncn3n2)CC1 [Compound 1, reference compound]
- IC50 [4]: ~10 µM
- hERG IC50 versus Cp EC90(free) ratio ([4]; safety margin): ~ 4 fold
- IC50 [5]: ~10 µM

Compound: O=S(=O)(Cc1ccc(Cl)c(Cl)c1)N1CCN(c2ccc3nncn3n2)CC1 [Compound 13, 1-[(3,4-dichlorophenyl)methanesulfonyl]-4-{[1,2,4]triazolo[4,3-b]pyridazin-6-yl}piperazine]
- change of potency, in words [1]: dramatic loss of potency

Compound: O=C(Cc1ccc(Cl)cc1)N1CCN(c2ccc3nncn3n2)CC1 [Compound 29i, 2-(4-chlorophenyl)-1-(4-{[1,2,4]triazolo[4,3-b]pyridazin-6-yl}piperazin-1-yl)ethan-1-one]
- fold more potent than H (entry 1, 29a) ([1]; Cp HCT-8 EC50, Table 2): 25 fold

Compound: CN(C(=O)N1CCN(c2ccc3nncn3n2)CC1)c1ccc(Cl)c(Cl)c1 [Compound 11, N-(3,4-dichlorophenyl)-N-methyl-4-{[1,2,4]triazolo[4,3-b]pyridazin-6-yl}piperazine-1-carboxamide]
- change of potency, in words [1]: dramatic loss of potency

Compound: 2-(3,4-dichlorophenyl)-1-(2-methyl-4-{[1,2,4]triazolo[4,3-b]pyridazin-6-yl}piperazin-1-yl)ethan-1-one [Compound 10c]
- fold loss of potency [1]: > 50 fold

Compound: O=C(Cc1ccc(Cl)c(Cl)c1)N1CCCN(c2ccc3nncn3n2)CC1 [Compound 12c, 2-(3,4-dichlorophenyl)-1-(4-{[1,2,4]triazolo[4,3-b]pyridazin-6-yl}-1,4-diazepan-1-yl)ethan-1-one]
- fold loss of potency [1]: > 50 fold

Compound: O=C(Cc1ccc(Cl)c(Cl)c1)N1CCN(c2ccc3nncn3n2)CC1 [Compound 12a, 2-(3,4-Dichlorophenyl)-1-(4-{[1,2,4]triazolo[4,3-b]pyridazin-6-yl}piperazin-1-yl)ethan-1-one]
- inhibition at 10 µM [6]: ≤ 10%
- IC50 [4]: ~8 µM
- hERG margin using EC50, not corrected for plasma protein binding ([4]; safety margin): > 40 fold
- cytotoxicity in HCT-8 cells, in words [7]: non-cytotoxic in HCT-8 cells
- clearance ([8]; jejunum): 0.7 mL/min/kg
- clearance at 6 h ([8]; plasma): 0.317 mL/min/kg
- time of exposure to eliminate 99.9% of parasites ([3]; based on estimated decay rate, at six times the EC90): ≤ 98 h
- mice with no parasites detected ten days after completing treatment [9]: 3 of 4 and three of the four

Compound: CC1CN(c2ccc3nncn3n2)CCN1C(=O)Cc1ccc(Cl)c(Cl)c1 (stereo not shown) [Compound 12d, 2-(3,4-dichlorophenyl)-1-(2-methyl-4-{[1,2,4]triazolo[4,3-b]pyridazin-6-yl}piperazin-1-yl)ethan-1-one]
- fold loss of potency [1]: > 50 fold

Compound: O=C(Nc1ccc(Cl)c(Cl)c1)N1CCN(c2ccc3nncn3n2)CC1 [Compound 2, 4-([1,2,4]triazolo[4,3-b]pyridazin-6-yl)-N-(3,4-dichlorophenyl)piperazine-1-carboxamide]
- inhibition at 1 µM ([4]; human, CHO cells that express hERG): > 40%
- fold more potent than MMV665917 [2]: about 4 fold
- effect on parasite numbers in time-kill assay [3]: parasite numbers declined exponentially
- inhibition at 10 µM [10]: ~50%

Compound: N-(3,4-dichlorophenyl)-4-{[1,2,4]triazolo[4,3-b]pyridazin-6-yl}cyclohex-3-ene-1-carboxamide [Compound 18a]
- change of potency, in words [1]: equipotent to its N-linked counterpart 2
- MDCK-MDR Efflux Ratio [11]: 6.5
- hERG binding, %inh [12]: 56%

Compound: O=C(Nc1ccc(Cl)c(Cl)c1)N1CCCN(c2ccc3nncn3n2)CC1 [Compound 10b, N-(3,4-dichlorophenyl)-4-{[1,2,4]triazolo[4,3-b]pyridazin-6-yl}-1,4-diazepane-1-carboxamide]
- fold loss of potency [1]: > 50 fold

Reference: article PMC8792998 (Journal of medicinal chemistry, 2021)
